Results: patent publication US9290768B2, “Engineered microorganisms having resistance to ionic liquids” (priority 2012, dated 2016)

Legend:
[1] = test system: E. coli expressing the transporter gene; type: cell-based; settings: ionic liquids at equimolar levels; MFS1-expressing E. coli
Procedure: Top line, MFS/[C2mim]Cl; Second line from top, MFS/C2mim]Oac; Second line from bottom, empty vector//[C2mim]Cl; Bottom, line empty vector/C2mim]Oac
In one experiment, E. coli expressing the transporter gene were also cultured in media differing only in the type of imidazolium ionic liquid (at equimolar levels), to assess the influence of aliphatic chain lengths of the cation, and the anions Cl—, BuSO4-, and acetate.

[2] = test system: Enterobacter lignolyticus SCF1; assay: Growth of soil isolate in ionic liquid (IL resistance testing); type: cell-based; settings: Enterobacter lignolyticus SCF1, tropical rain forest soil isolate
Excerpt: In testing for IL resistance in a tropical rain forest soil community, a bacterium that grows in up to 8% 1-ethyl-3-methylimidazolium chloride ([C2mim]Cl) was isolated. It is a Gram-negative anaerobe that is both lignocellulolytic and halotolerant: Enterobacter lignolyticus SCF1 (DeAngelis, et al., Standards in Genomic Sciences 5:69-85, 2011; Khudyakov, et al., Global transcriptome response to ionic liquid by a tropical rain forest soil bacterium, Enterobacter lignolyticus. Proc. Natl. Acad. Sci USA, 2012). We examined SCF1 to identify genes contributing to IL tolerance using various analyses, including screening an E. coli fosmid library containing SCF1 genomic DNA.

[3] = test system: TetR-repressor; assay: MFS1-GFP fusion protein fluorescence (flow-cytometry), induction of repressor; type: cell-based, Enterobacter lignolyticus; settings: FIG. 5
Procedure: FIG. 5 provides illustrative data showing that [C2mim]Cl-inducible TetR-repressor regulates MFS-expression. […] In the absence of this repressor, the intergenic promoter-region was constitutively turned on (left columns in bar graph compared to right columns).
An SCF1 library was constructed using 30-50 kb genomic DNA inserts in fosmid vectors, and E. coli transformants were plated on 2% [C2mim]Cl for initial selection. GFP-fluorescence was measured by flow-cytometry.
In the absence of this repressor, the intergenic promoter-region was constitutively turned on.

[4] = test system: E. coli containing an expression plasmid encoding the entire 2.6 kbp insert; assay: Growth of E. coli carrying the 2.6 kbp SCF1 insert at different levels of [C2mim]Cl (shake flask growth assay); type: cell-based; settings: E. coli clones comprising the mfs1 gene sequence; FIG. 3
Excerpt: FIG. 3 provides data from a 50-ml shake flask growth assay showing the resistance of E. coli containing the 2606 bp region to 4% and 6% [C2mim]Cl. Top panel: lines correspond to E. coli with common sequence; Enterobacter lignolyticus; and E. coli with empty vector; Middle panel (lines designated using hour 6 as a reference point): top line, E. coli with common sequence; middle line, Enterobacter lignolyticus; bottom line, E. coli with empty vector. Bottom panel: top line, E. coli with common sequence; middle line, Enterobacter lignolyticus; bottom line, E. coli with empty vector
SCF1 cells and E. coli containing an expression plasmid encoding the entire 2.6 kbp insert were tested at different levels of [C2mim]Cl.

[5] = test system: E. coli; assay: Methyl viologen tolerance of E. coli expressing MFS1; type: cell-based; settings: FIG. 6
Excerpt: Bottom solid lines are empty vector and tetR-mfs.
The closest homologue of MFS1 is a methyl viologen transporter protein in K. oxytoca. MFS1 conferred tolerance to this compound in E. coli (FIG. 6).

CCCCn1cc[n+](C)c1.[Cl-] [BMIM-Cl, 1-butyl-3-methylimidazolium chloride]
tolerance of E. coli expressing the transporter gene to the ionic liquid [1]: lower tolerance than with EMIM-Cl

CC(=O)[O-].CCn1cc[n+](C)c1 [[C2mim]-Acetate, 1-ethyl-3-methylimidazolium acetate]
tolerance of E. coli expressing the transporter gene to the ionic liquid [1]: confers tolerance

CCn1cc[n+](C)c1.[Cl-] [[C2mim]Cl, 1-ethyl-3-methylimidazolium chloride]
ionic liquid level in which the bacterium grows [2]: up to 8% | induction of the TetR-repressor / regulation of MFS1-expression [3]: inducible | ionic liquid level at which the clones exhibited resistance [4]: at least 6%

C[n+]1ccc(-c2cc[n+](C)cc2)cc1 [methyl viologen]
tolerance of E. coli conferred by MFS1 [5]: confers tolerance
